The values that follow are results of earlier work, collected in patent US11337939B2 (PULMONEM INC., priority 2020, dated 2022).

Data set [1] has as its system human bronchial epithelial cells. Conditions: stimulated with lipopolysaccharide.
For a further data set, the system named is airway inflammation. The following applies: ferret.

With `Nc1ccc(S(=O)(=O)c2ccc(N)cc2)cc1` [Dapsone, 4,4′-diaminodiphenyl sulfone], for the setting “from the gastrointestinal tract”, the “absorbed from the gastrointestinal tract” value is 70%-80%. The “time to peak serum concentration” value (serum) is 2 to 6 h. For the same compound, the IL-8 secretion entry in data set [1] was “inhibits IL-8 secretion”. Besides, the airway inflammation result with airway inflammation is on record as “resolves airway inflammation”.
